How the values were obtained:
Assay type in all cases: binding, human
MYCN G4 DNA [1] = assay: Fluorescence intensity assay (FIA) with 5′Cy5-labeled MYCN G4 DNA; conditions: for Kd: 5′Cy5-labeled MYCN G4 titrated with compound; for positive binding in FIA (>10% quenching): single concentration 100 μM compound, 5′Cy5-MYCN G4
Protocol: Fluorescence intensity assay. In this disclosure, fluorescence intensity assay (FIA) was used for both validation of hit binding at a single dose and binding affinity determination. For validating hit compounds from SMM screening, 100 μM solution of each compound was prepared in triplicate in a 96 well-plate (Costar, black side clear bottom), resulting in 5% DMSO concentration. 5′Cy5-labeled MYCN G4 DNA was annealed as described above, then added into the well plate resulting in a final concentration of 100 nM. The plate was incubated shaking for 30 min, followed by centrifuging at 500 rpm for 2 minutes. The fluorescence intensity was then measured on a Synergy Mx microplate reader (BioTek) at Ex 649 nm/Em 670 nm. TMPyP4/DMSO were used as positive and negative controls, respectively. In certain examples, compounds were considered binders when a change of >10% change in fluorescence intensity was observed compared to that of negative control (DMSO solution). For binding affinity measurement, small molecule solutions were prepared as serial dilutions in DMSO. Then a final test plate was prepared by adding 5 μL small molecule solutions and 10 μL annealed DNA samples into 85 μL buffer solutions, resulting in the final small molecule concentrations from 0 to 250 μM (5% final DMSO concentration). The fluorescence intensities were normalized, and the binding affinity was calculated by fitting the curve using one-site total model in GraphPad Prism 8.3.1 software. The fluorescence titration using 3′-labeled oligonucleotides was also performed the same way.

MYCN G4 DNA [2] = assay: Circular dichroism (CD) thermal melting assay of MYCN G4; conditions: for increase of Tm (ΔTm) of MYCN G4: 20 μM compound, 10 mM Tris pH 7.0, 5 mM KCl
Protocol: For thermal melt assay, MYCN oligonucleotides were prepared in a low KCl buffer (10 mM Tris, pH7.0, 5 mM KCl) at 5 μM concentration. To test the stabilization effect, G4 samples were incubated with and without 20 μM compound (final solution containing 5% DMSO). Then a total of 300 μL solution was added in a cuvette and heated from 20° C. to 95° C. in a CD spectrometer with an interval of 1° C. To calculate the melting temperature (Tm), the peak of CD spectrum at 263 nm was tracked, and […] vs temperature was plotted and fitted using a nonlinear sigmoidal dose-response model with a variable slope in GraphPad Prism 8 software. The shifting of melting temperature (ΔTm) was calculated using Tm (compound)−Tm (DMSO).
For CD melting assay, MYCN oligonucleotides were prepared in KCl buffer (10 mM sodium phosphate, pH7.0, 5 mM KCl) at 5 μM concentration. To test the stabilization effect of the compounds, MYCN G4 DNA samples were mixed with/without the compound (final solution containing 5% DMSO) at designed concentration. Then a total of 300 μL solution was added in a cuvette and heated from 20 to 80° C. in a CD spectrometer with an interval of 1° C. To calculate the melting temperature (Tm), the peak of CD spectrum at 263 nm was tracked, and […] vs temperature was plotted and fitted using a nonlinear sigmoidal dose-response model with a variable slope in GraphPad Prism 8 software.

MYCN G4 DNA [3] = assay: Surface plasmon resonance (SPR) with immobilized biotinylated MYCN G4 DNA; conditions: for positive binding in SPR (SNR>3): single concentration 100 μM compound
Outline: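 Biotinylated MYCN G4 DNA, annealed at 95 °C, was captured on a streptavidin-coated CM5 chip; running buffer was 10 mM Tris pH 7.0, 100 mM KCl, 0.005% Tween 20, 5% DMSO. Compound series were injected at 25 μL/min (120 s association, 200 s dissociation), reference-subtracted, and KD was fitted with a Langmuir 1:1 model.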

[4] = MYCN G4, Langmuir 1:1 model, read-out: SPR KD

Kd (MYCN G4 DNA [3]; [4]) [µM] | Structure (SMILES) | Kd (MYCN G4 DNA [1]) [µM] | positive binding in FIA (>10% quenching) (MYCN G4 DNA [1]) | increase of Tm (ΔTm) of MYCN G4 (MYCN G4 DNA [2]) [°C] | ΔTm of MYCN G4 at 40 μM (MYCN G4 DNA [2]; 40 μM MY-1, versus 20 μM) | positive binding in SPR (SNR>3) (MYCN G4 DNA [3]) | ΔTm of MYCN G4 (MYCN G4 DNA [2]; 10 mM sodium phosphate pH 7.0, 5 mM KCl, 5 μM DNA) [°C] | Kd (MYCN G4 DNA [3]; MYCN hairpin G4, SPR titration, read-out: KD by SPR) [µM]
3.6 ± 2.4 | COc1ccc(-c2noc(-c3ccc(NCCCN4CCCC4)nn3)n2)cc1 [MY-1, 6-(3-(4-methoxyphenyl)-1,2,4-oxadiazol-5-yl)-N-(3-(pyrrolidin-1-yl)propyl)pyridazin-3-amine] | 3.5 ± 1.6 | hits | 3.7±0.5 | not significantly increased | hits | – | –
– | COc1ccc(-c2noc(-c3ccc(NCCCNc4c5ccc(Cl)cc5nc5ccc(OC)cc45)nn3)n2)cc1 [B33, N^1-(6-chloro-2-methoxyacridin-9-yl)-N^3-(6-(3-(4-methoxyphenyl)-1,2,4-oxadiazol-5-yl)pyridazin-3-yl)propane-1,3-diamine] | – | – | – | – | – | 6.4 | 0.07 ± 0.013
1.5 ± 0.3 | COc1ccc(-c2noc(-c3ccc(NCCCN4CCCCCC4)nn3)n2)cc1 [MY-8, N-(3-(azepan-1-yl)propyl)-6-(3-(4-methoxyphenyl)-1,2,4-oxadiazol-5-yl)pyridazin-3-amine] | – | – | – | – | – | – | –

Structure (SMILES) | Kd (MYCN G4 DNA [3]; [4]) [µM] | Kd (MYCN G4 DNA [1]) [µM] | positive binding in FIA (>10% quenching) (MYCN G4 DNA [1]) | increase of Tm (ΔTm) of MYCN G4 (MYCN G4 DNA [2]) [°C] | ΔTm of MYCN G4 at 40 μM (MYCN G4 DNA [2]; 40 μM MY-1, versus 20 μM) | positive binding in SPR (SNR>3) (MYCN G4 DNA [3]) | ΔTm of MYCN G4 (MYCN G4 DNA [2]; 10 mM sodium phosphate pH 7.0, 5 mM KCl, 5 μM DNA) [°C] | Kd (MYCN G4 DNA [3]; MYCN hairpin G4, SPR titration, read-out: KD by SPR) [µM]
CCCN1CCN(c2nnc(-n3cccc3CNCCCN3CCCCCC3)s2)CC1 [Compound 1] | 11.7 ± 2.6 | 20.8 ± 2.2 | hits | 4.7±0.7 | – | hits | – | –
